Experimental data as given in patent US8481553B2, “Antimetastatic compounds” (Brigham Young University, priority 2010, dated 2013).

test system: MDCK cells; test: HGF-induced epithelial-mesenchymal transition / migration of MDCK cells on transwell filters (crystal violet densitometry); format: cell-based; details: Canis lupus familiaris, MDCK; test compound 10 μM, then HGF, 24 hours; percentage value like the untreated controls (unstimulated cells = maximal effect, HGF treated cells without compound = nil effect)
Description: MDCK cells were seeded at confluency into the wells of a transwell filter in DMEM with 10% fetal bovine serum. Cells were cultured for 24 hours. Test compounds, dissolved in DMSO, were added to each test well to a 10 μM final concentration, and then hepatocyte growth factor (HGF) was then added. The MDCK cells were cultured for 24 hours. Concurrently, controls treated with and without HGF and with no test compounds were also prepared.
After post-HGF addition culturing, transwell filters were prepared by repeated washing using ice cold PBS. The cells were then fixed with paraformaldehyde (3.7%) on ice for 15 minutes to the filters. After fixation, the transwell filters were washed repeatedly with PBS followed by staining with crystal violet for 15 minutes. The transwell filters were washed again with distilled water.
The upper surface of the transwell filters were swabbed using a cotton-tipped probe. The filters were photographed using a gel documentation system. Densitometry measurements were made on the test samples and compared with control samples.

Row | SMILES | inhibition at 10 µM [%]
1 | C=CCc1ccccc1OCC(=O)N/N=C/c1ccc(C)cc1C [Compound 1] | 97
2 | C=CCc1ccccc1OCC(=O)N/N=C/c1ccc(Cl)cc1 [Compound 2] | 67.3
3 | C=CCc1ccccc1OCC(=O)N/N=C/c1cccc(Oc2ccccc2)c1 [Compound 3] | 70.9
4 | CCOc1ccccc1OCC(=O)N/N=C/c1ccc(O)cc1O [Compound 4] | 32.3
5 | N#Cc1ccccc1OCC(=O)N/N=C/c1ccccc1O [Compound 5] | 41.1
6 | N#Cc1ccccc1OCC(=O)N/N=C/c1ccccc1 [Compound 6] | 44.2
7 | N#Cc1ccccc1OCC(=O)N/N=C/c1ccc(Cl)cc1 [Compound 7] | 86.8
8 | N#Cc1ccccc1OCC(=O)N/N=C/c1ccc(Cl)cc1Cl [Compound 8] | 55.1
9 | C=CCOc1ccccc1/C=N/NC(=O)COc1ccccc1CC=C [Compound 9] | 49.5
10 | C=CCc1ccccc1OCC(=O)N/N=C/c1cccc(CC=C)c1O [Compound 10] | 44.8
11 | N#Cc1ccccc1OCC(=O)N/N=C/c1ccc([N+](=O)[O-])cc1 [Compound 11] | 83.7
12 | N#Cc1ccccc1OCC(=O)N/N=C/c1cccc(Br)c1 [Compound 12] | 67.7
13 | N#Cc1ccccc1OCC(=O)N/N=C/c1c(Cl)cccc1Cl [Compound 13] | 86
14 | CCc1ccccc1OCC(=O)N/N=C/c1ccc(Br)cc1 [Compound 14] | 100
15 | CCOc1ccccc1OCC(=O)N/N=C/c1ccc(O)c(O)c1 [Compound 15] | 72.8
16 | O=c1[nH]c(CCc2ccccc2)nc2sc3c(c12)CCCC3 [Compound A-1] | 96.9
17 | O=c1[nH]c(NCc2ccccc2)nc2sc3c(c12)CCCC3 [Compound A-2] | 92.2
18 | O=C1c2cccc3cccc(c23)C(=O)N1CCc1nc2sc3c(c2c(=O)[nH]1)CCCC3 [Compound A-3] | 73.4
19 | O=c1[nH]c(/C=C/c2ccccc2)nc2sc3c(c12)CCCC3 [Compound A-4] | 90.8
20 | O=c1[nH]c(SCc2ccccc2)nc2sc3c(c12)CCc1ccccc1-3 [Compound A-5] | 77.3
21 | Cc1noc(C)c1CSc1nc2sc3c(c2c(=O)n1-c1ccccc1)CCCC3 [Compound A-7] | 31.3
22 | Cc1nc(CSc2nc3[nH]ncc3c(=O)n2-c2ccccc2)cs1 [Compound A-8] | 49.6
23 | O=C(CSc1nc2sc3c(c2c(=O)n1Cc1ccccc1)CCCC3)N1CCCC1 [Compound A-9] | 50
24 | Cc1noc(C)c1CSc1nc2[nH]ncc2c(=O)n1-c1ccccc1 [Compound A-10] | 63.1
25 | O=C(O)CCc1nc2sc3c(c2c(=O)[nH]1)CCCC3 [Compound A-12] | 100
26 | O=c1[nH]c(SC/C=C/c2ccccc2)nc2sc3c(c12)CCCC3 [Compound A-13] | 90.5
27 | C=C(C)CSc1nc2sc3c(c2c(=O)[nH]1)CCCC3 [Compound A-14] | 100

Row | SMILES | inhibition at 10 µM [%]
28 | CCOC(=O)/C=C/CSc1nc2sc3c(c2c(=O)[nH]1)CCCC3 [Compound A-15] | 71.3
29 | O=C1c2cccc3cccc(c23)C(=O)N1CCCc1nc2sc3c(c2c(=O)[nH]1)CCCC3 [Compound A-16] | 70.1
30 | COc1cc(/C=C/c2ccc3cccc(OC)c3n2)cc(OC)c1OC [Compound B-1] | 96.8
31 | CCOc1cc(/C=C/c2ccc3cccc(O)c3n2)ccc1OC [Compound B-2] | > 5
32 | COc1cc(/C=C/c2ccc3cccc(O)c3n2)ccc1O [Compound B-3] | > 5
33 | CCOc1ccc(/C=C/c2ccc3cccc(OC)c3n2)cc1OC [Compound B-5] | > 5
34 | COc1ccc(/C=C/c2ccc3cccc(OC)c3n2)cc1Cl [Compound B-6] | > 5
35 | COc1cc(/C=C/c2ccc3cccc(OC)c3n2)ccc1OC(C)=O [Compound B-7] | > 5
36 | Oc1cccc2ccc(/C=C/c3ccc(Cl)c(Cl)c3)nc12 [Compound B-8] | > 5
37 | COc1cc(/C=C/c2ccc3cccc(OC)c3n2)cc(Br)c1OC [Compound B-9] | > 5
38 | CCOc1cccc(/C=C/c2ccc3cccc(OC)c3n2)c1 [Compound B-10] | 76.1
39 | COc1cccc2ccc(/C=C/c3ccc(Br)cc3)nc12 [Compound B-11] | 61.4
40 | COc1cc(OC)c(OC)cc1/C=C/c1ccc2cccc(OC)c2n1 [Compound B-12] | 50.6
41 | CCOc1cc(/C=C/c2ccc3cccc(OC(=O)CC)c3n2)cc(Br)c1OC [Compound B-13] | 62.2
42 | COc1c(OC(C)=O)ccc(/C=C/c2ccc3cccc(OC)c3n2)c1[N+](=O)[O-] [Compound B-14] | 61.1
43 | CCOc1cccc(/C=C/c2ccc3cccc(OC)c3n2)c1OC(C)=O [Compound B-15] | 53.1
44 | COc1cc(/C=C/c2ccc3cccc(OCc4ccccc4Cl)c3n2)cc(OC)c1OC [Compound B-17] | 100
45 | COc1cc(/C=C/c2ccc3cccc(OCc4ccccc4)c3n2)ccc1OC(C)=O [Compound B-18] | 100
46 | COc1cccc2ccc(/C=C/c3cccc([N+](=O)[O-])c3)nc12 [Compound B-20] | 92.4
47 | COc1cccc2ccc(/C=C/c3cc(I)ccc3OC(C)=O)nc12 [Compound B-21] | 72.5
48 | COc1cc(Cl)cc(/C=C/c2ccc3cccc(OC)c3n2)c1OC(C)=O [Compound B-22] | 98.1
49 | COc1cc(Br)cc(/C=C/c2ccc3cccc(OC)c3n2)c1OC [Compound B-23] | 72.8
50 | CCC(=O)Oc1c(OC)cc(/C=C/c2ccc3cccc(OC(=O)CC)c3n2)cc1OC [Compound B-24] | 98.1
51 | COc1cc(/C=C/c2ccc3cccc(OCc4ccc(Cl)cc4)c3n2)cc(OC)c1OC(C)=O [Compound B-25] | 78.8
52 | CCc1ccc(/C=C/c2ccc3cccc(O)c3n2)cc1 [Compound B-26] | 81.1
53 | Oc1c(Br)cc(Cl)cc1/C=C/c1ccc2cccc(O)c2n1 [Compound B-27] | 100

same assay, conditions: test compound 10 μM, then HGF, 24 hours; percentage value like the untreated controls (unstimulated cells = maximal effect, HGF treated cells without compound = nil effect)

Row | SMILES | Assay Value [%]
54 | Cc1cccc(OCC(=O)N/N=C/c2cccc(I)c2)c1 [Compound 16] | <5
55 | Cc1cc(C)c(OCC(=O)N/N=C/c2ccccc2)c(C)c1 [Compound 17] | <5
56 | COc1ccccc1/C=N/NC(=O)COc1c(C)cc(C)cc1C [Compound 18] | <5
57 | COc1ccc(/C=N/NC(=O)COc2ccccc2C)cc1 [Compound 19] | <5
58 | Cc1ccc(OCC(=O)N/N=C/c2ccccc2)cc1 [Compound 20] | <5
59 | Cc1cc(C)c(/C=N/NC(=O)COc2ccccc2)c(C)c1 [Compound 21] | <5
60 | Cc1ccc(OCC(=O)N/N=C/c2ccc(C(=O)O)cc2)c(C)c1 [Compound 22] | <5
61 | Cc1cccc(OCC(=O)N/N=C/c2ccc(O)cc2)c1C [Compound 23] | <5
62 | COc1cccc(/C=N/NC(=O)COc2cc(C)ccc2C(C)C)c1 [Compound 24] | <5
63 | Cc1ccc(C)c(OCC(=O)N/N=C/c2ccc(CC(=O)O)cc2)c1C [Compound 25] | <5
64 | Cc1ccccc1OCC(=O)N/N=C/c1ccc(F)cc1 [Compound 26] | <5
65 | O=C(COc1ccccc1Br)N/N=C/c1cccc(Br)c1 [Compound 28] | <5
66 | O=C(COc1ccc2ccccc2c1)N/N=C/c1ccccc1Br [Compound 30] | <5
67 | O=C(COc1ccc2ccccc2c1)N/N=C/c1ccccc1 [Compound 31] | <5
68 | COc1ccccc1/C=N/NC(=O)COc1ccccc1OC [Compound 32] | <5
69 | COc1ccccc1OCC(=O)N/N=C/c1ccc(Cl)cc1 [Compound 33] | <5
70 | Cc1ccc(/C=N/NC(=O)COc2ccccc2Br)c(C)c1 [Compound 34] | <5
71 | O=C(COc1cccc(Br)c1)N/N=C/c1ccc(Cl)cc1 [Compound 35] | <5
72 | Cc1ccc(/C=N/NC(=O)COc2cccc(Br)c2)c(C)c1 [Compound 36] | <5
73 | O=C(COc1ccccc1Br)N/N=C/c1ccccc1Br [Compound 37] | <5
74 | O=C(COc1ccc(Br)cc1)N/N=C/c1ccc(Cl)cc1 [Compound 38] | <5
75 | Cc1noc(C)c1CSc1nc2sc3c(c2c(=O)n1-c1ccccc1)CCC3 [Compound A-6] | 55.1
76 | O=C(CSc1nc2sc3c(c2c(=O)n1-c1ccccc1)CCCC3)c1cccs1 [Compound A-17] | <5
77 | CC1CCc2c(sc3nc(Cc4ccccc4)[nH]c(=O)c23)C1 (centres unmarked) [Compound A-18] | <5
78 | CC1CCc2c(sc3nc(SCC(=O)N4CCOCC4)n(Cc4ccccc4)c(=O)c23)C1 (centres unmarked) [Compound A-20] | <5
79 | O=C(CSc1nc2sc3c(c2c(=O)n1Cc1ccccc1)CCCC3)N1CCCC1 [Compound A-21] | <5
80 | CC1CCCCN1C(=O)CSc1nc2sc3c(c2c(=O)n1-c1ccccc1)CCC3 (centres unmarked) [Compound A-22] | <5
81 | CC1CCN(C(=O)CSc2nc3sc4c(c3c(=O)[nH]2)CCCC4)CC1 [Compound A-25] | <5
82 | Oc1cccc2ccc(/C=C/c3ccc(OC4CCCC4)cc3)nc12 [Compound B-16] | 100
83 | Oc1cccc2ccc(/C=C/c3ccc(OCc4ccccc4)cc3)nc12 [Compound B-19] | 91.0
